{"source": "paper doi:10.1101/2025.02.26.640323", "about": "“Aggregation-Dependent Epitope Sequence and Modification Fingerprints of Anti-Aβ Antibodies” (bioRxiv, 2025)", "key": {"[1]": {"system": "amyloid precursor protein (APP770) residues 649–722", "test": "Peptide microarray epitope pre-screening (overlapping 15-mers)", "type": "binding, human", "details": "0.5–1 μg/mL antibody", "method": "Information regarding binding epitopes and /or immunogens for most of the tested Aβ-Abs has been published and is summarized in Table 1. However, the binding epitope information was derived from varying methodologies. To provide an initial side-by-side comparison we pre-screened all of the listed Aβ-Abs in array format using copies of peptide libraries and standard antibody concentrations of 0.5–1 μg/mL (Figure 1a). The library comprised the amyloid precursor protein (APP770) residues 649–722, corresponding to the canonical Aβ1–42 amino acid sequence with additional 23 amino terminal and 9 carboxy terminal residues. […] For optimal signal to noise ratios and ideal selectivity profiles on the microarrays, the Aβ-Ab concentrations were adjusted for 3D6, 82E1, 11H3, 80C2 and 7H3D6 (Figure 1 – figure- supplement 1) and (Appendix 1–7). […] Specifically, Donanemabbs, 2–48 and Aβ-pE3 were raised against AβpE3-x (Table 1) and were expected to show preference for Aβ peptides starting with a pE(3).\nFigure 1. Microarray workflow and Aβ-Ab epitope pre-screening. (a) Schematic of the microarray workflow. The library comprised the amyloid precursor protein (APP) residues 649–722 (APP770 numbering), corresponding to Aβ residues −23 to 51, as a library of 15-mer peptides overlapping by 14AAs, copied in dozens, and probed for Aβ-Abs binding followed by analysis in MARTin. (b) The epitope screening binding data are summarized as a heatmap. Blue and red shades indicate the relative binding strength of the related arrayed peptides to the left and cognate Aβ-Ab on top. The blue – red scale is visualizing the normalized binding intensity for each antibody individually. The applied antibody concentrations ranged between 0.5–1 μg/mL.\nThe μSPOT assay was performed as previously described. […] Peptide arrays were synthesized using MultiPep RSi robot (CEM GmbH, Kamp-Lintford, Germany) on cellulose discs containing Fmoc-β-Ala linkers. Natural amino acid building blocks were purchased from IRIS (IRIS Biotech GmbH, Marktredwitz, Germany). Special building blocks employed in this study such as isomers, stereoisomers, phosphorylation and pyroglutamination […] modifications are listed here: Fmoc-L-Ser(PO(OBzl)OH)-OH (Iris – FAA1423), L-Pyroglutamic acid pentachlorophenyl ester (Novabiochem - 8.54203), Fmoc-L-Asp-OtBu (Iris – FAA1356), Fmoc-D-Asp-OtBu (Carbosolutions – CC05095) and Fmoc-D-Asp(tBu)-OH (Iris – FAA1309). Synthesis was carried out by deprotecting the Fmoc-group using 20% piperidine in dimethylformamide (DMF). Peptide chains were elongated using a coupling solution consisting of amino acids (0.5M) with oxyma (1M) and DIC (1M) in DMF (1:1:1). Coupling steps were carried out 3 times (30min), followed by capping (4% acetic anhydride in DMF). Discs were transferred into 96 deep-well plates for the work-up."}, "AβpE3-x": {"system": "AβpE3-x", "test": "PTM-Aβ microarray, pE3", "type": "binding, human", "details": "Donanemabbs 0,0012μg/mL, 2–48, Aβ-pE3, IC16 […], vs Aβ3-x with non-cyclized Glu", "text": "Specific PTMs might be associated with different stages of AD progression and severity, offering potential biomarkers for diagnosis and prognosis. Targeting PTMs represents a potential therapeutic strategy to prevent Aβ aggregation and neurotoxicity, thereby slowing disease progression. […] Therefore, a selected group of PTM-carrying Aβ peptides (PTM-Aβ) were incorporated into the Aβ chip to explore the potential binding preference of selected Aβ-Abs, under optimized concentrations (Figure 3). The antibodies were tested with both PTM-Aβ and the corresponding unmodified variants to provide a head-to-head comparison. This screening was performed in the presence of Aβ phosphorylated at positions Ser(8) or Ser(26), N-terminal pE at position 3, racemization/isomerization of Asp at position 1, and unmodified N-terminal variants. The dataset is divided into sections (Figure 3 a–f) for enhanced visualization, where each antibody was screened simultaneously against all peptides to locate their epitope preferences. […] A set of antibodies without reported PTM preference was applied here as controls (refer to Table 1), namely 11H3, 101–1-1, IC16, 82E1 and 3D6.\nFigure 3. […] Blue and red shades indicate the binding strength over the related arrayed […] modified peptide shown on top and cognate anti-Aβ antibody to the left. […]"}, "Aβ": {"system": "Aβ", "details": "ref [47],[64],[57],[14]; cited from earlier work"}, "CAA fibrils": {"system": "CAA fibrils", "details": "ref [38],[47]; cited from earlier work", "text": "Despite extensive structural, genetic, and pre-clinical investigations, clinical trials of Aβ antibodies have yielded ambiguous outcomes. Aβ antibody binding to cerebral amyloid angiopathy (CAA) has been hypothesized to correlate with the frequency of amyloid-related imaging abnormalities with edema (ARIA-E) observed in patients treated with Aβ-based immunotherapies."}}, "note": "Entries after “also recorded” stand apart in the source; their conditions may differ."}
{"substance": "Donanemab: Eli Lilly's Donanemab, approved in the US as Kisunla [reference compound]", "values": [{"measurement": "Array: epitope identified in this study on microarrays", "setting": "[1]; Aβ residue numbers, 15-mer peptides overlapping by 14AAs on cellulose conjugates, chemiluminescence", "result": "3–10"}, {"measurement": "binding in epitope pre-screening", "setting": "[1]; unmodified Aβ-related 15-mers, generic pre-screening conditions", "result": "produced detectable signals in this pre-screening with unmodified Aβ-related peptides"}, {"measurement": "selectivity for / binding to AβpE3-x", "setting": "AβpE3-x", "result": "cyclized AβpE3-x as the dominant binding determinant"}, {"measurement": "reported selectivity for modified Aβ", "setting": "Aβ", "result": "selective for AβpE3; also recorded: known to recognize Aβ starting with cyclized pE3"}, {"measurement": "binding to CAA fibrils", "setting": "CAA fibrils", "result": "binds to CAA fibrils in proportion to the amount of pyroglutamate-modified Aβ they present"}]}
